# According to US20190134120A1, “METHODS FOR THE TREATMENT OF BLADDER CANCER” (Viralytics Limited, priority 2013, published 2019):
# Key:
# 5637 cells = assay: Synergy between CVA21 and radiotherapy, 5637 cells; format: cell-based, Human; settings: 5637 cells irradiated (4-10 Gy)
# Method: Combining CVA21 with the radiotherapy has shown exceptional synergy. When 5637 cells were irradiated (4-10 Gy) then 24 hours later exposed to CVA21 (multiplicities of infection 0.961-12.6), clear synergy was seen (FIG. 3a). […] A comprehensive experimental and analytic method was implemented for this work which allows calculation of combination index values at all data points, and therefore identification of areas of high synergy across the whole response surface (Greco et al. 1995) (FIGS. 3b, 3c).
# In brief, T24/5637 cells were plated at 0.25×10^4/0.5×10^4 cells per well (100 μL) of a 96 well tray and incubated at 37° C. for 24 hrs. Day 2—An extra 100 ul 10% FCS, media was added to the cells. Then they were treated with Rad (Gy 0, 4, 6, 8, 10) on a clinical Varian linear accelerator in St Luke's Cancer Centre, Royal Surrey Hospital UK. Day 2—The plates were returned to the lab and incubated at 37° C. for 24 hrs. Day 3—The medium was removed and 100 ul of CVA21 (MOI 12.5-0.1 in 2% FCS medium) was added and incubated at 37° C. for 72 hrs. Day 6—The medium was removed and 100 μl of fresh 10% FCS medium added and incubated for 24 hrs. Day 7—The medium was removed and 100 μl of diluted MTS reagent (Promega) was added. The plates were then incubated for 1-2 hr and read absorbance at 492 nm. […]
# [1] = test system: late stage melanoma patients; settings: Phase I, intratumorally administered, cited from earlier work
# [2] = test system: bladder cancer cell line 5637; assay: Synergy between CVA21 and MMC, dose matrix, 5637 cells; format: cell-based, Human; settings: MMC 0 to 2.8 ug/ml
# Method: (§1) In brief, 5637/T24/TCCSUP-1 cells were plated at 1×10^4 cells per well (100 μL) of a 96 well tray and incubated at 37° C. for 24 hrs. Mitomycin C was diluted in 10% FCS medium in doubling dilutions from between 2.8 to 0.02 ug/ml for 5637 cells and between 3.36 to 0.03 ug/ml for T24 cells. CVA21 was then diluted between MOI 25-0.196 in doubling dilutions using each dilution of Mitomycin C. The cells were then treated with each dilution of CVA21/Mitomycin C and incubated for 72 hrs. The medium was removed and 100 μl of diluted MTS reagent (Promega) was added. The plates were then incubated for 1-4 hrs and absorbance read at 492 nm.
# [3] = test system: bladder cancer cell lines; assay: Combination of CVA21 and chemotherapy on cell proliferation, combination index (CalcuSyn); format: cell-based, Human; settings: for combination index values: fixed ratio design
# Method: FIG. 2 c): The effect of the combination of CVA21 and chemotherapy on cell proliferation was assessed by calculating combination index (CI) values using CalcuSyn software (Biosoft).
# as §1, with “Combining CVA21 with the chemotherapy agents Mitomycin C and Gemcitabine has shown surprising synergy. […] Preliminary data using the same method has found from the 50% to the 75% effect levels, combination index values of 0.69-0.83 with Gemcitabine (FIG. 2b). In” for “In”
substance,measurement,setting,value
Coxsackievirus A21 [CVA21],interaction of CVA21 with radiation,5637 cells; 24 hours later CVA21,clear synergy
same,"combination indices, minima","5637 cells; 24 hours later exposed to CVA21 (MOI 0.961-12.6), dose matrix analysis",approximately 0.4
same,tolerability,[1]; humans,well tolerated
same,patients with stabilization or reduction in injected tumour volumes,[1]; late stage melanoma,55.55%
same,interaction of CVA21 with MMC,[2],Synergy
same,synergy with sequential dosing,"[3]; CVA21 administered 4 hours after MMC, compared with concomitant dosing",synergy is well maintained
same,combination index values,"[3]; CVA21 with Gemcitabine, from the 50% to the 75% effect levels, preliminary data",0.69-0.83
same,combination index values,"[3]; CVA21 with Mitomycin C, from the 50% to the 90% effect levels",0.40-0.55
